{"source": "patent US7833939B2", "about": "“Herbicide compositions” (Kumiai Chemical Industry Co., Ltd., priority 2002, dated 2010)", "key": {"corn [1]": {"tested_on": "corn", "assay": "Herbicidal effect by upland field soil treatment (Application Example 2): phytotoxicity to corn", "format": "in vivo", "details": "30th day from treatment", "protocol": "(§1) Test for Herbicidal Effect by Upland Field Soil Treatment\n(§2) An upland field soil was filled in a plastic pot of 11 cm each of length, width and depth. Seeds of corn and velvetleaf (Abutilon theophrasti Medic) were sowed, followed by covering with the same soil. The wettable powder produced in accordance with Formulation 1 was weighed so as to provide active ingredients in a predetermined amount, and was diluted with water and sprayed uniformly on the soil surface using a small sprayer, in an amount of 100 liters per […]. Then, growing was made in a greenhouse, and the herbicidal effect of each wettable powder was examined at the 30th day from the treatment in accordance with the standard shown in Table 15."}, "[2]": {"tested_on": "velvetleaf (Abutilon theophrasti Medic)", "assay": "Herbicidal effect by upland field soil treatment (Application Example 2): velvetleaf", "format": "in vivo", "details": "30th day from treatment", "protocol": "as §1, §2"}, "[3]": {"tested_on": "common lambsquarters (Chenopodium album L.)", "assay": "Herbicidal effect by upland field soil treatment (Application Example 1): common lambsquarters", "format": "in vivo", "details": "30th day from treatment", "protocol": "as §1\nas §2, with “corn, green foxtail (Setaria viridis)” for “corn”, “common lambsquarters (Chenopodium album L.)” for “velvetleaf (Abutilon theophrasti Medic)”"}, "[4]": {"tested_on": "green foxtail (Setaria viridis)", "assay": "Herbicidal effect by upland field soil treatment (Application Example 1): green foxtail", "format": "in vivo", "details": "30th day from treatment", "protocol": "as §1\nas §2, with “corn, green foxtail (Setaria viridis)” for “corn”, “common lambsquarters (Chenopodium album L.)” for “velvetleaf (Abutilon theophrasti Medic)”"}, "corn [5]": {"tested_on": "corn", "assay": "Herbicidal effect by upland field soil treatment (Application Example 1): phytotoxicity to corn", "format": "in vivo", "details": "30th day from treatment", "protocol": "as §1\nas §2, with “corn, green foxtail (Setaria viridis)” for “corn”, “common lambsquarters (Chenopodium album L.)” for “velvetleaf (Abutilon theophrasti Medic)”"}, "[6]": {"details": "32 g a.i./ha, soil surface spray of wettable powder, index of Table 15"}, "[7]": {"details": "32 g a.i./ha, upland field soil treatment"}, "[8]": {"details": "16 g a.i./ha, soil surface spray of wettable powder, index of Table 15"}, "[9]": {"details": "16 g a.i./ha, upland field soil treatment"}}, "data": [{"smiles": "Cn1nc(C(F)(F)F)c(CS(=O)(=O)C2=NOC(C)(C)C2)c1OC(F)F", "note": "[Compound 3-188]", "values": [{"measurement": "Corn", "setting": "corn [1]; 16 g a.i./ha", "value": "0 (Herbicidal effect or phytotoxicity of from 0 to 9%)"}, {"measurement": "Corn", "setting": "corn [1]; 32 g a.i./ha", "value": "0 (Herbicidal effect or phytotoxicity of from 0 to 9%)"}, {"measurement": "Velvetleaf (Abutilon theophrasti Medic)", "setting": "[2]; 16 g a.i./ha", "value": "2 (Herbicidal effect or phytotoxicity of from 20 to 29%)"}, {"measurement": "Velvetleaf (Abutilon theophrasti Medic)", "setting": "[2]; 32 g a.i./ha", "value": "2 (Herbicidal effect or phytotoxicity of from 20 to 29%)"}]}, {"smiles": "CCNc1nc(Cl)nc(NC(C)C)n1", "note": "[Atrazine]", "values": [{"measurement": "Corn", "setting": "corn [1]; 125 g a.i./ha", "value": "0 (Herbicidal effect or phytotoxicity of from 0 to 9%)"}, {"measurement": "Velvetleaf (Abutilon theophrasti Medic)", "setting": "[2]; 125 g a.i./ha", "value": "1 (Herbicidal effect or phytotoxicity of from 10 to 19%)"}]}, {"smiles": "CON=C(C)c1c(C)sc(C)c1CS(=O)(=O)C1=NOC(C)(C)C1", "note": "[Compound 2-0001, 5,5-dimethyl-3-[2,5-dimethyl-4-(1-methoxyiminoethyl)-thiophen-3-ylmethylsulfonyl]-2-isoxazoline]", "values": [{"measurement": "melting point", "value": "95 to 96", "unit": "°C"}, {"measurement": "Herbicidal effect Common lambsquarter (Chenopodium album L.)", "setting": "[3]; [6]", "value": "1 (Herbicidal effect or phytotoxicity of from 10 to 19%)"}, {"measurement": "Herbicidal effect Green foxtail (Sataria viridis)", "setting": "[4]; [6]", "value": "2 (Herbicidal effect or phytotoxicity of from 20 to 29%)"}, {"measurement": "Herbicidal effect Corn", "setting": "corn [5]; [6]", "value": "0 (Herbicidal effect or phytotoxicity of from 0 to 9%)"}]}, {"smiles": "Cc1onc(C(F)(F)F)c1CS(=O)(=O)C1=NOC(C)(C)C1", "note": "[Compound 4-0001, 5,5-dimethyl-3-(5-methyl-3-trifluoromethylisoxazol-4-ylmethylsulfonyl)-2-isoxazoline]", "values": [{"measurement": "melting point", "value": "135 to 136", "unit": "°C"}, {"measurement": "Herbicidal effect Common lambsquarter (Chenopodium album L.)", "setting": "[3]; [7]", "value": "1 (Herbicidal effect or phytotoxicity of from 10 to 19%)"}, {"measurement": "Herbicidal effect Green foxtail (Sataria viridis)", "setting": "[4]; [7]", "value": "2 (Herbicidal effect or phytotoxicity of from 20 to 29%)"}, {"measurement": "Herbicidal effect Corn", "setting": "corn [5]; [7]", "value": "0 (Herbicidal effect or phytotoxicity of from 0 to 9%)"}]}, {"smiles": "Cn1nc(C(F)(F)F)c(CS(=O)(=O)C2=NOC(C)(C)C2)c1OC1CCCC1", "note": "[Compound 3-0015, 3-(5-cyclopentyloxy-1-methyl-3-trifluoromethyl-1H-pyrazol-4-ylmethylsulfonyl)-5,5-dimethyl-2-isoxazoline]", "values": [{"measurement": "melting point", "value": "113 to 114", "unit": "°C"}, {"measurement": "Herbicidal effect Common lambsquarter (Chenopodium album L.)", "setting": "[3]; [7]", "value": "3 (Herbicidal effect or phytotoxicity of from 30 to 39%)"}, {"measurement": "Herbicidal effect Green foxtail (Sataria viridis)", "setting": "[4]; [7]", "value": "3 (Herbicidal effect or phytotoxicity of from 30 to 39%)"}, {"measurement": "Herbicidal effect Corn", "setting": "corn [5]; [7]", "value": "0 (Herbicidal effect or phytotoxicity of from 0 to 9%)"}]}, {"smiles": "Cn1nc(C(F)(F)F)c(CS(=O)(=O)C2=NOC(C)(C)C2)c1Cl", "note": "[Compound 3-0039, 3-(5-chloro-1-methyl-3-trifluoromethylpyrazol-4-ylmethanesulfonyl)-5,5-dimethyl-2-isoxazoline]", "values": [{"measurement": "melting point", "value": "115 to 116", "unit": "°C"}, {"measurement": "Herbicidal effect Common lambsquarter (Chenopodium album L.)", "setting": "[3]; [8]", "value": "3 (Herbicidal effect or phytotoxicity of from 30 to 39%)"}, {"measurement": "Herbicidal effect Green foxtail (Sataria viridis)", "setting": "[4]; [8]", "value": "3 (Herbicidal effect or phytotoxicity of from 30 to 39%)"}, {"measurement": "Herbicidal effect Corn", "setting": "corn [5]; [8]", "value": "0 (Herbicidal effect or phytotoxicity of from 0 to 9%)"}]}, {"smiles": "Cn1nc(C(F)(F)F)c(CS(=O)(=O)C2=NOC(C)(C)C2)c1Oc1ccccc1Cl", "note": "[Compound 3-0014, 3-(5-(2-chlorophenoxy)-1-methyl-3-trifluoromethyl-1H-pyrazol-4-ylmethylsulfonyl)-5,5-dimethyl-2-isoxazoline]", "values": [{"measurement": "melting point", "value": "67 to 70", "unit": "°C"}, {"measurement": "Herbicidal effect Common lambsquarter (Chenopodium album L.)", "setting": "[3]; [7]", "value": "2 (Herbicidal effect or phytotoxicity of from 20 to 29%)"}, {"measurement": "Herbicidal effect Green foxtail (Sataria viridis)", "setting": "[4]; [7]", "value": "2 (Herbicidal effect or phytotoxicity of from 20 to 29%)"}, {"measurement": "Herbicidal effect Corn", "setting": "corn [5]; [7]", "value": "0 (Herbicidal effect or phytotoxicity of from 0 to 9%)"}]}, {"smiles": "COc1c(CS(=O)(=O)C2=NOC(C)(C)C2)c(C(F)(F)F)nn1C", "note": "[Compound 3-0013, 5,5-dimethyl-3-(5-methoxy-1-methyl-3-trifluoromethyl-1H-pyrazol-4-ylmethylsulfonyl)-2-isoxazoline]", "values": [{"measurement": "melting point", "value": "113 to 114", "unit": "°C"}, {"measurement": "Herbicidal effect Common lambsquarter (Chenopodium album L.)", "setting": "[3]; [9]", "value": "2 (Herbicidal effect or phytotoxicity of from 20 to 29%)"}, {"measurement": "Herbicidal effect Green foxtail (Sataria viridis)", "setting": "[4]; [9]", "value": "2 (Herbicidal effect or phytotoxicity of from 20 to 29%)"}, {"measurement": "Herbicidal effect Corn", "setting": "corn [5]; [9]", "value": "0 (Herbicidal effect or phytotoxicity of from 0 to 9%)"}]}, {"smiles": "CCOc1nn(C)c(C(F)(F)F)c1CS(=O)(=O)C1=NOC(C)(C)C1", "note": "[Compound 3-0012, 5,5-dimethyl-3-(3-ethoxy-1-methyl-5-trifluoromethyl-1H-pyrazol-4-ylmethylsulfonyl)-2-isoxazoline]", "values": [{"measurement": "melting point", "value": "124 to 125", "unit": "°C"}, {"measurement": "Herbicidal effect Common lambsquarter (Chenopodium album L.)", "setting": "[3]; [9]", "value": "1 (Herbicidal effect or phytotoxicity of from 10 to 19%)"}, {"measurement": "Herbicidal effect Green foxtail (Sataria viridis)", "setting": "[4]; [9]", "value": "2 (Herbicidal effect or phytotoxicity of from 20 to 29%)"}, {"measurement": "Herbicidal effect Corn", "setting": "corn [5]; [9]", "value": "0 (Herbicidal effect or phytotoxicity of from 0 to 9%)"}]}, {"smiles": "Cn1nc(C(F)(F)F)c(CS(=O)(=O)C2=NOC(C)(C)C2)c1C#N", "note": "[Compound 3-0016, 3-(5-cyano-1-methyl-3-trifluoromethyl-1H-pyrazol-4-ylmethylsulfonyl)-5,5-dimethyl-2-isoxazoline]", "values": [{"measurement": "melting point", "value": "105 to 108", "unit": "°C"}, {"measurement": "Herbicidal effect Common lambsquarter (Chenopodium album L.)", "setting": "[3]; [9]", "value": "3 (Herbicidal effect or phytotoxicity of from 30 to 39%)"}, {"measurement": "Herbicidal effect Green foxtail (Sataria viridis)", "setting": "[4]; [9]", "value": "3 (Herbicidal effect or phytotoxicity of from 30 to 39%)"}, {"measurement": "Herbicidal effect Corn", "setting": "corn [5]; [9]", "value": "0 (Herbicidal effect or phytotoxicity of from 0 to 9%)"}]}]}
